Paper PMC7177456, “A Peptidomimetic Fluorescent Probe to Detect the Trypsin β2 Subunit of the Human 20S Proteasome” (International Journal of Molecular Sciences, 2020)
Read-outs that look alike come from different tables or passages of the source. Non-standard residues stand in square brackets, D forms with d. *: point of attachment. ACC = NC(=O)Cc1cc(=O)oc2cc(N*)ccc12; AMC = Cc1cc(=O)oc2cc(N*)ccc12; hSer = N[C@@H](CCO)C(=O)O; Boc = CC(C)(C)OC(=O)*

How the values were obtained:
[1] = molecular target: T1, human 20S proteasome, trypsin-like (β2) subunit (Homo sapiens, UniProt P49720+Q99436); assay: Kinetic parameters of substrate 1 with human 20S proteasome (allosteric fit); format: biochemical; conditions: SDS 0.01%, substrate 1
T1 construct: purchased Boston Biochem (Cambridge, MA, USA)
Experimental: For enzymatic studies, the human 20S proteasome, 26S proteasome, and 20S immunoproteasome were purchased from Boston Biochem (Cambridge, MA, USA). The 20S proteasome concentration for library deconvolution was in the nanomolar range, and this proteasome entity was used for the main study. Deconvolution of the peptide libraries was performed using the iterative solution method. Dimethyl sulfoxide (DMSO) was used as a solvent for preparation of the stock solution (5 mg/mL) for each lyophilized sub-library. This stock solution was diluted ten times using an assay buffer (50 mM Tris/HCl buffer (pH 8.2)) for the 20S and 20Si proteasome, and for 26S, the buffer was supplemented with 40 mM KCl, 2 mM EDTA, 1 mM DTT, 100 µM ATP, and 50 µg/mL bovine serum albumin (BSA). The volume composition of each well of the 96-well plate was: 20 µL library, 160 µL assay buffer, and 20 µL 20S proteasome solution at a concentration of 1.07 × 10^−9 M. Absorbance or fluorescence measurements were performed on a FluoroStar OMEGA multimode microplate reader (BMG, Ortenberg, Germany). Absorbance increases were monitored at 410 nm. The excitation and emission wavelengths were 320 and 450 nm respectively, for the ABZ/ANB. Enzymatic hydrolysis of the peptide was performed in the assay buffer at 37 °C and continued over 60 min.
The procedures to determine the kinetic constants Km and kcat are described below. Increasing concentrations of substrate 1 ranged from 1 × 10^−6 to 2 × 10^−5 M. In parallel, a kinetic assay with the artificial activator SDS at 0.01% was also performed. The data were fitted to an allosteric plot using GraphPad prism v6.0 (GraphPad Software Inc., La Jolla, CA, USA). The specificity constants (kcat/ Km) were calculated from the kcat and Km values. Measurements were performed using a 20S proteasome concentration of 1.07 × 10^−9 M. Three to five measurements were performed for each compound dilution (the systematic error, defined as the standard deviation, never surpassed 20%). The initial hydrolysis rates were used as the amount of enzymatic activity for the tested compounds. All kinetic study details and kinetic parameters have been described elsewhere.

20S proteasome = assay: Inhibitory studies: cleavage of substrate 1 in the presence of selective proteasome inhibitors; format: biochemical, human; conditions: 30 min preincubation at 37 °C, 20S 1.07 × 10^−9 M, substrate 1.34 × 10^−5 M, triplicate
From the text: A black, 96-well flat-bottomed microplate (Brand GMBH, Wertheim, Germany) was used for the inhibitory studies. Two inhibitors, carfilzomib (a selective inhibitor of the β5 subunit of the 20S proteasome) and epoxomicin, were purchased from Merck (Darmstadt, Germany) and used at final concentrations of 1.15 × 10^−6 M and 5.0 × 10^−5 M, respectively. The β2 inhibitor, PR671A [20], and the β1 inhibitor, NCOO1 [21], were used at a concentration of 5 × 10^−6 M. These reagents were kindly provided by Alexei Kisselev from Dartmouth University (Dartmouth, NH, USA). The concentration of 20S proteasome was 1.07 × 10^−9 M. The buffered proteasome solution was mixed with 10 µL inhibitor solution. This mixture was incubated for 30 min at 37 °C. After this period, the substrate solution was added at a concentration of 1.34 × 10^−5 M, and the fluorescence was measured over time at 320 nm excitation and 450 nm emission wavelengths. All measurements were performed in triplicate.

[2] = tested on: neutrophil-related proteases / neutrophil serine protease 4 (NSP4); conditions: ref [19], cited from earlier work
From the text: Recently, we established a new method for the selection and synthesis of artificial fluorogenic substrates composed of DAPEG residues (Figure 1). For the screening of 18 libraries, we created a series of compounds based on the neutrophil serine protease 4 (NSP4) substrate sequence (ABZ–X4–X3–X2–Arg–ANB–NH2) diversified in positions X4 to X2 with DAPEG, resulting in a total of almost 6000 compounds.

[3] = tested on: trypsin-like subunit of the 20S proteasome; conditions: cited from earlier work; for selectivity for trypsin-like specificity: commercially available substrates, no reference given; for selectivity for trypsin-like specificity / selectivity for the trypsin subunit: introduction
From the text: Table 1 Overview of the fluorogenic substrates of the trypsin-like subunit of the 20S proteasome. | column: Km (µM); kcat (s^−1); kcat/Km (M^−1 s^−1) || The aim of this work is to develop a new substrate to assay the trypsin-like specificity of the human 20S proteasome that is created by DAPEG building blocks, which are N-substituted functionalized derivates of 3-diaminopropionic acid (Figure 1). The substrate preferences of the β2 subunit have been previously examined. Harris and coworkers described the development of new substrates selected via combinatorial library screening. The substrate peptides were labeled with 7-amino-4-carbamoylmethylcoumarin (ACC) as a reporter moiety, and a specific sequence of the β2 subunit, Ac–Glu– ...

[4] = tested on: chymotrypsin subunit (β5) of the 20S proteasome in human urine; assay: Proteasome activity in human urine with the β5 substrate; format: biochemical
Experimental: All urine samples were purchased from St. Vincent de Paul Hospital in Gdynia, Poland (contract no. JN/777/R720/08.11.17). All methods and procedures were performed in accordance with this contract agreement. Participants were informed about the study and sample collection, and their written consent was collected. […] Therefore, the samples were considered unnamed. The samples of human urine were taken during mid-urination and kept for 48 h at −80 °C until required. All samples used for assay development were taken from healthy volunteers (n = 5), and oncological samples were obtained from patients diagnosed with bladder cancer (n = 8).
In parallel, the urine samples were analyzed using the previously developed substrate ABZ–Val–Val–Ser–Tyr–Ala–Met–Gly–Tyr(3-NO2)–NH2 [21] in two systems: one with the artificial activator SDS at 0.01% and the second without any SDS. The fluorescence of the system was recorded over time. The same conditions for excitation and emission were used as above. All measurements were performed in triplicate.
The resulting data were analyzed using Graphpad Prism version 6.0 software (GraphPad Software Inc., La Jolla, CA, USA). All fluorescent measurements were performed in triplicate and represented by the mean ± standard deviation (SD). A two-tailed Mann–Whitney test was applied for the statistical analysis (p < 0.0001).

## CCCCCCCCCCCCOS(=O)(=O)[O-].[Na+] [SDS, sodium dodecyl sulfate]
[1]
  effect on β2 subunit activity of the 20S proteasome: not significantly altered

## CC(C)C[C@H](NC(=O)[C@H](CCc1ccccc1)NC(=O)CN1CCOCC1)C(=O)N[C@@H](Cc1ccccc1)C(=O)N[C@@H](CC(C)C)C(=O)[C@@]1(C)CO1 [carfilzomib]
20S proteasome; carfilzomib (β5) 1.15 × 10^−6 M
  effect on cleavage of substrate 1: a slight activation of the cleavage rate

## CC[C@H](C)[C@H](NC(=O)[C@H]([C@@H](C)CC)N(C)C(C)=O)C(=O)N[C@H](C(=O)N[C@@H](CC(C)C)C(=O)[C@@]1(C)CO1)[C@@H](C)O [epoxomicin]
20S proteasome; epoxomicin (general inhibitor) 5.0 × 10^−5 M
  effect on cleavage of substrate 1: proteolytic suppression of substrate 1

## ABZ–Dap(O2(Cbz))–Dap(Cbz)–Dap(GO1)–Arg–ANB–NH2
[2]; NSP4 substrate-based library
  specificity constant (kcat/Km): 130000 M⁻¹ s⁻¹
[2]
  selectivity towards neutrophil-related proteases: high levels of selectivity

## ABZ–Val–Val–Ser–GNF–Ala–Met–Gly–Tyr(3-NO2)–NH2
[3]; ref [21]
  Km: 4.24 ± 0.87 µM
  kcat: 8.41 ± 0.57 s⁻¹
  kcat/Km: 1,983,100 ± 2754 M^−1 s^−1

## ABZ–Val–Val–Ser–Tyr–Ala–Met–Gly–Tyr(3-NO2)–NH2 [previously developed substrate]
[4]; healthy urine, all systems (with and without SDS), n = 5
  fluorescence increase, healthy samples: no visible fluorescence increase
[4]; with SDS 0.01%, 8 bladder cancer samples, triplicate
  bladder cancer samples with fluorescence increase: seven systems (1–5, 7, and 8)
[4]; with SDS 0.01%, bladder cancer sample N° 6
  fluorescence increase rate, sample N° 6: insignificant
[4]; without SDS, 8 bladder cancer samples, 320/450 nm, triplicate
  bladder cancer samples with visible fluorescence increase: 2 out of the 8

## Ac-Leu-Arg-Arg-{AMC} [commercially available 20S proteasome substrate]
[3]
  selectivity for trypsin-like specificity: significant selectivity

## Ac-[dR][hSer]TR-{ACC}
[3]; ref [18]
  selectivity for the trypsin subunit: moderate selectivity at higher proteasome concentrations
  Km: 9.43 ± 0.82 µM
  kcat: 2.84 ± 0.22 s⁻¹
  kcat/Km: 301,005 ± 28,471 M^−1 s^−1
[3]; ref [18], listed as Ac–DArg–Hse–Thr–Arg–ACC
  kcat/Km: 301,005 M^−1 s^−1

## Ac–βAla–Met(O)2–Thr–Arg–ACC
[3]; ref [18]
  selectivity for the trypsin subunit: most selective
  Km: 50.9 ± 2.99 µM
  kcat: 2.23 ± 0.07 s⁻¹
  kcat/Km: 43,790 ± 3233 M^−1 s^−1
[3]; ref [18], listed as Ac–βAla–Met(O2)–Thr–Arg–ACC
  kcat/Km: 43,790 M^−1 s^−1

## Boc-Leu-Arg-Arg-{AMC} [commercially available 20S proteasome substrate]
[3]
  selectivity for trypsin-like specificity: significant selectivity
[3]; ref [22]
  kcat/Km: <500 M⁻¹ s⁻¹
